Results published in the NIST ThermoML archive (doi:10.1016/j.fluid.2010.06.017).
Numbers after ± are expanded uncertainties.

Assay: wn = mass fraction of the nth substance listed
Details: 373.15 K; 34470 kPa; Liquid; Vibrating tube method; w1 = 0.4623

Compound `FC(F)(F)C1(F)C(F)(F)C(F)(F)C(F)(F)C(F)(C(F)(F)F)C1(F)F` (stereo unspecified) + C has a mass density of 1399 ± 17 kg/m3.
